“And” between values parts separate entries of the source, which are not always exact repeats. Equal values may be shown once. Read-outs that look alike come from different tables or passages of the source.
System: expanded OPCs
Assay: cells
Conditions: for viability at 0.1 µM / viability at 1 µM / viability at 10 µM: Rattus norvegicus, 72 h
Experimental: Having established a consistent assay for measuring OL differentiation in vitro, the next step was to utilize this assay to assess the ability of a wide array of compounds to promote OL differentiation. Prior to library screening, we first established the maximum non-toxic dose of each compound in the library. […] Therefore, we added each compound in the NIH clinical collection (NCC) library to OPCs at 10, 1, and 0.1 µM concentrations. Three days later, we assessed viability of the treated cells by measuring AlamarBlue fluorescence, a measure of cell viability (see “Methods” section). […] Appropriately, we established three sets of screening concentrations for library compounds: non-toxic compounds were tested at 10 and 2 µM, slightly toxic compounds (only toxic at 10 µM) were tested at 2 and 0.4 µM, and very toxic compounds were tested at 0.4 and 0.08 µM.
OPCs were expanded in vitro by seeding into PDL-coated tissue culture flasks at 1000–2000 cells/cm^2 in differentiation media supplemented with 10 ng/ml PDGF-AA. Proliferating OPCs were fed every 2–3 days and supplemented with 2–3× concentration of PDGF as needed to prevent OPC differentiation. After 6–7 days of proliferation, OPCs were harvested by trypsinization, plated into PDL-coated 96-well Falcon plates and centrifuged at 200×g to facilitate cell attachment, survival, and even distribution of cells. Expanded OPCs were seeded in differentiation media at 10,000 cells/well and incubated for 2 h at 37 °C, 10 % CO2 prior to addition of compounds. The NCC library was diluted and added to cells at 10, 1, and 0.1 µM; each concentration was tested in quadruplicate. As a positive control for the induction of toxicity, 5 ng/ml tunicamycin was added to 8 wells in each plate. Three days later, a 1:10 dilution of alamarBlue® (AB) was added to each well and cells were incubated 4 h at 37 °C, 10 % CO2. AB fluorescence was measured using a PerkinElmer Victor II fluorescence microplate reader (PerkinElmer, Waltham, MA) with 560 nm excitation/590 nm emission filters. For library screening, the highest concentration of each compound was adjusted to a minimally toxic concentration based on this toxicity data. Compounds were additionally tested at a second concentration that was 1/5th of the top concentration. The final concentration of DMSO in each well was 0.1 %.

[1] = alamarBlue viability of expanded OPCs, compound at 0.1 µM, relative to DMSO control
[2] = alamarBlue viability of expanded OPCs, compound at 1 µM, relative to DMSO control
[3] = alamarBlue viability of expanded OPCs, compound at 10 µM, relative to DMSO control
[4] = read-out: 0.1 µM (% DMSO), alamarBlue viability of expanded OPCs, compound at 0.1 µM, sheet All Tox data
[5] = read-out: 1 µM (% DMSO), alamarBlue viability of expanded OPCs, compound at 1 µM, sheet All Tox data
[6] = read-out: 10 µM (% DMSO), alamarBlue viability of expanded OPCs, compound at 10 µM, sheet All Tox data
[7] = read-out: 0.1 µM (% DMSO), alamarBlue viability, NCC library compound at 0.1 µM, sheet "All Tox data"
[8] = read-out: 1 µM (% DMSO), alamarBlue viability, NCC library compound at 1 µM, sheet "All Tox data"
[9] = read-out: 10 µM (% DMSO), alamarBlue viability, NCC library compound at 10 µM, sheet "All Tox data"

Cc1ccccc1C(OCCN(C)C)c1ccccc1 (stereo not drawn) [Orphenadrine]
0.1 µM (% DMSO) [1]: 86.1 % DMSO and 95.1 % DMSO | 1 µM (% DMSO) [2]: 67.2 % DMSO and 74.3 % DMSO | 10 µM (% DMSO) [3]: 47.8 % DMSO and 50.8 % DMSO

COc1cc([C@@H]2c3cc4c(cc3[C@H](O)[C@H]3COC(=O)[C@H]23)OCO4)cc(OC)c1OC [Podophyllotoxin]
0.1 µM (% DMSO) [1]: 14.8 % DMSO | 1 µM (% DMSO) [2]: 10.6 % DMSO | 10 µM (% DMSO) [3]: 9.1 % DMSO

CCCN[C@H]1CCc2nc(N)sc2C1 [Pramipexole]
viability at 0.1 µM [4]: 88.8% | viability at 1 µM [5]: 92.5% | viability at 10 µM [6]: 96%

COc1cc2nc(N3CCN(C(=O)c4ccco4)CC3)nc(N)c2cc1OC [Prazosin]
viability at 0.1 µM [4]: 80.9% | viability at 1 µM [5]: 87.6% | viability at 10 µM [6]: 13.1%

CC(C)CC(N(C)C)C1(c2ccc(Cl)cc2)CCC1 (stereo not drawn) [Sibutramine]
viability at 0.1 µM [7]: 88.3% | viability at 1 µM [8]: 84% | viability at 10 µM [9]: 84.4%

Cc1cc(NS(=O)(=O)c2ccc(N)cc2)no1 [Sulfamethoxazole]
viability at 0.1 µM [7]: 90.6% | viability at 1 µM [8]: 96.3% | viability at 10 µM [9]: 96.5%

C[C@]12CC[C@H]3[C@@H](CCC4=CC(=O)CC[C@@]43C)[C@@H]1CC[C@@H]2O [Testosterone]
viability at 0.1 µM (read-out: 0.1 µM (% DMSO)): 88.4% | viability at 1 µM (read-out: 1 µM (% DMSO)): 87.4% | viability at 10 µM (read-out: 10 µM (% DMSO)): 86.2% | 0.1 µM (% DMSO) (rat): 87.3 % DMSO | 1 µM (% DMSO) (rat): 87.6 % DMSO | 10 µM (% DMSO) (rat): 84.8 % DMSO

Clc1ccccc1CN1CCc2sccc2C1 [Ticlopidine]
viability at 0.1 µM [4]: 107% | viability at 1 µM [5]: 103% | viability at 10 µM [6]: 90.3%

COc1ccc(CCN(C)CCCC(C#N)(c2ccc(OC)c(OC)c2)C(C)C)cc1OC (stereo not drawn) [Verapamil]
viability at 0.1 µM (read-out: 0.1 µM (% DMSO)): 84.5% | viability at 1 µM (read-out: 1 µM (% DMSO)): 92.8% | viability at 10 µM (read-out: 10 µM (% DMSO)): 43%

CC[C@]1(O)C[C@H]2CN(CCc3c([nH]c4ccccc34)[C@@](C(=O)OC)(c3cc4c(cc3OC)N(C=O)[C@H]3[C@@](O)(C(=O)OC)[C@H](OC(C)=O)[C@]5(CC)C=CCN6CC[C@]43[C@@H]65)C2)C1 [Vincristine]
viability at 0.1 µM [7]: 17.4% | viability at 1 µM [8]: 11.1% | viability at 10 µM [9]: 9%

Medroxyprogesterone
0.1 µM (% DMSO) (alamarBlue viability, NCC library compound at 0.1 µM, sheet "All Tox data"): 117.3 % DMSO | 1 µM (% DMSO) (alamarBlue viability, NCC library compound at 1 µM, sheet "All Tox data"): 126.7 % DMSO | 10 µM (% DMSO) (alamarBlue viability, NCC library compound at 10 µM, sheet "All Tox data"): 141.4 % DMSO

From publication PMC5011342, “A high throughput drug screening assay to identify compounds that promote oligodendrocyte differentiation using acutely dissociated and purified oligodendrocyte precursor cells” (BMC Research Notes, 2016)
